In patent US20250000876A1, “Novel therapeutic agent for inflammatory disease” (Gachon University of Industry-Academic cooperation …, priority 2020, published 2025):

How the values were obtained:
[1] = Hydrodynamic size distribution, potential and polydispersity index (Zetasizer Nano); assay type: physicochemical
M1-activated FLS = assay: Cytokine expression in FLSs activated with M1 macrophage conditioned medium; assay type: cell-based, human
Procedure: (§1) To measure cytokine expression, RT-PCR (CFX 384, Bio-Rad, Hercules, CA, USA) was performed according to the manufacturer's protocol. […] Then, total RNA was isolated from cells (5×10^5 cells/well in a total of 6-well plates) using TRIzol (15596018, Thermo Fisher Scientific) and first strand complementary DNA (cDNA) using RT premix (Promega) was synthesized. Reverse transcription conditions were carried out at 45° C. for 60 minutes and at 95° C. for 5 minutes. Briefly, in each final reaction tube, 2 μL of cDNA (1 μg), 1 μL of sense and antisense primer solutions (0.4 μM), 12.5 μL of SYBR Premix Ex Taq (Takara Bio Inc.) and 9.5 μL of dH2O. The cycle threshold (Ct) value was calculated using the CFX96 Real-Time PCR Detection System (Bio-Rad) software, and the comparative Ct method (2ΔΔCt model) was used to calculate the relative fold change of gene expression. It was then normalized to mean GAPDH expression.
Recently, the role of macrophages in inflamed synovial membranes has been of great interest due to the inflammatory effects of these cells during pathogens of RA and OA in joints (A. Kennedy et al., Front. Immunol., 2:52, 2011). The present inventors therefore investigated the stimulation of FLS pro-inflammatory activity by activated M1 macrophage cytokines (from LPS-treated J774 cells to conditioned medium).

CIA-induced mice = assay: Collagen-induced arthritis (CIA) model; assay type: in vivo, DBA/1 mice; details: for paw edema and paw score: ankle joint, 48 days
Procedure: DBA/1 mice (male, 4-6 weeks old, body weight 20-25 g) were purchased from Orient Bio (Seoul, Korea) and the mice were subjected to a 12-hour light/dark cycle (lit at 6:30 AM) for 7-14 days. They were placed in a specific pathogen-free environment with temperature and humidity controlled and acclimatized before the experiment. All animal experiments were performed according to the Gachon University Laboratory Animal Care and Use Guide. […] Animals with […] arthritis were randomly assigned to 6 groups (n=6) after the first signs of inflammation were observed on day 27.
The status of RA was assessed visually by grading paw swelling according to the following criteria: 0, no swelling; 1, inflammation and swelling in one toe; 2, more than one toe, but inflammation and swelling throughout the foot; 3, moderate swelling of the entire foot; 4, Severe erythema and swelling of the entire foot and ankle (H. E. Scales, et al., Rheumatology (Oxford) 55 (3): 564-572, 2016). A total score of four paws was recorded for each mouse as the arthritis index. […] Each treatment group was administered twice weekly for 3 weeks, 2 mg/kg or 5 mg/kg condition, and the arthritis index of each group was recorded over time. After 3 weeks of treatment, mice were sacrificed, and limbs were collected and histological analysis was performed.
Histopathology was evaluated to determine the characteristics of RA including macrophage phenotype, synovitis and cartilage destruction. Specifically, on day 48, the mice were sacrificed and the ankle joint was recovered. The […] was fixed in 4% paraformaldehyde at 4° C. for 3 days, transferred to a descaling solution (Sigma), and left on an orbital shaker. Then, the tissue was decalcified at room temperature for 14 days, and the non-calcified ankle joint was embedded in paraffin and then cut into 3 μm using a microtome. For immunofluorescence histochemistry, tissue sections were dewaxed and TNF-α (Abcam, ab1793), IL-1β (Abcam, ab9722), IL-6 (Abcam, ab7737), INF-γ (Novus Biotech, NBP1), CD86 (Invitrogen, 13-0862-82), and Dectin-1 (Abcam, ab140039) were stained with primary antibodies. The secondary antibodies used in the present invention are goat anti-rat Alexa Fluor 488 (Abcam) for INF-γ, goat anti-mouse Alexa Fluor 488 (Abcam) for TNF-α, goat anti-mouse Alexa Fluor 568 for CD86 (Abcam), goat anti-rabbit Alexa Fluor 488 (Abcam) for IL-1β and IL-6 and goat anti-rabbit Alexa Fluor 568 (Abcam) for Dectin-1. The tissue sections were then stained with DAPI mounting solution and observed using a confocal fluorescence microscope (LSM700, Carl Zeiss) and EVOS M7000, Invitrogen. Fluorescence intensity was also quantified using ImageJ, Zen Lite (Zeiss) and Celleste (Invitrogen).

[2] = test system: macrophages treated with TNF-α-activated FLSs medium; assay: Macrophage repolarization after TNF-α-activated FLSs medium; assay type: cell-based
Procedure: as §1
Macrophages of the synovium can stimulate pro-inflammatory FLSs activity by infiltrating inflamed tissues and increasing pro-inflammatory cytokine levels (M. Asif Amin et al., Semin. Immunopathol., 39 (4): 385-393, 2017). For this reason, modulating macrophage differentiation (ie, repolarization) is important in alleviating arthritis disease (J. Kim et al., ACS Nano, 13 (3): 3206-3217, 2019).

[3] = H2O2 decomposition and O2 production analysis; details: after 24 hours, pH 7.4
Procedure: Then, 50 μl of the solution was added to a solution of 100 μL of Ti (SO4)2 containing 1.33 mL of 24% Ti(SO4)2 and 8.33 mL of H2SO4 in 50 mL of deionized water after 24 hours. After the reaction was completed, the absorbance of the solution was measured at 405 nm to evaluate the H2O2 concentration.
We performed H2O2-scavenging effect of AuNPs and intracellular ROS analysis before pro-inflammatory cytokine secretion assay. Specifically, after treatment with Triamcinolone and AuNPs under physiological conditions (pH 7.4), concentration of H2O2 was analyzed.

Structure (SMILES)	electric potential caused by the surface charge ([1]; Example 9, Dex series)	hydrodynamic size ([1]; Example 9, Dex series)	electric potential caused by the surface charge ([1]; Example 1, Triam series)	hydrodynamic size ([1]; Example 1, Triam series)	level of FLSs pro-inflammatory cytokines (TNF-α, IL-1β and IL-6) (M1-activated FLS; FLSs treated with M1 medium)	anti-inflammatory mRNA (IL-4, IL-10 and Arg-1) synthesis (M1-activated FLS; M1-activated FLS)	level of CD86 (M1 marker) in ankle joint (CIA-induced mice; 2 mg/kg)	level of Dectin-1 (M2 marker) in ankle joint (CIA-induced mice; 2 mg/kg)	paw edema and paw score (CIA-induced mice; 2 mg/kg)	level of CD86 (M1 marker) in ankle joint (CIA-induced mice; 5 mg/kg)	level of Dectin-1 (M2 marker) in ankle joint (CIA-induced mice; 5 mg/kg)	paw edema and paw score (CIA-induced mice; 5 mg/kg)	M2 response (IL-4, Arg-1 and IL-10 expression) [2]	inflammatory marker levels (TNF-α, IL-1β and IL-6 expression) [2]	reduction of H2O2 concentration [3]
C[C@@H]1C[C@H]2[C@@H]3CCC4=CC(=O)C=C[C@]4(C)[C@@]3(F)[C@@H](O)C[C@]2(C)[C@@]1(O)C(=O)CO [free Dex, dexamethasone]	neutrally charged	125 nm													
C[C@]12C=CC(=O)C=C1CC[C@H]1[C@@H]3C[C@@H](O)[C@](O)(C(=O)CO)[C@@]3(C)C[C@H](O)[C@@]12F [Triam, Triamcinolone]			approached neutral charges	75 nm	effectively reduced	did not induce anti-inflammatory cytokine release	reduced the level of the M1 marker	did not sufficiently restore the level of the M2 marker	did not show sufficient effect	reduced the level of the M1 marker	did not sufficiently restore the level of the M2 marker	did not show sufficient effect	did not induce noticeable M2 marker expression	decreased significantly	about 48%
